Source: ChEMBL document CHEMBL1681705, “Optimisation of ITK inhibitors through successive iterative design cycles” (Bioorg Med Chem Lett, 2011)

Key:
[1] = target: Macrophage colony-stimulating factor 1 receptor (Homo sapiens) (UniProt P07333); assay: Inhibition of Fms at 1 uM; values are per cent of control
[2] = target: Tyrosine-protein kinase Fyn (Homo sapiens) (UniProt P06241); assay: Inhibition of Fyn at 0.1 uM; values are per cent of control
[3] = target: Serine/threonine-protein kinase pim-1 (Homo sapiens) (UniProt P11309); assay: Inhibition of Pim-1 at 1 uM; values are per cent of control
[4] = target: T1, Ephrin type-B receptor 1 (Homo sapiens) (UniProt P54762); assay: Inhibition of EphB1 at 0.1 uM; values are per cent of control
T1 sequence (whole entry): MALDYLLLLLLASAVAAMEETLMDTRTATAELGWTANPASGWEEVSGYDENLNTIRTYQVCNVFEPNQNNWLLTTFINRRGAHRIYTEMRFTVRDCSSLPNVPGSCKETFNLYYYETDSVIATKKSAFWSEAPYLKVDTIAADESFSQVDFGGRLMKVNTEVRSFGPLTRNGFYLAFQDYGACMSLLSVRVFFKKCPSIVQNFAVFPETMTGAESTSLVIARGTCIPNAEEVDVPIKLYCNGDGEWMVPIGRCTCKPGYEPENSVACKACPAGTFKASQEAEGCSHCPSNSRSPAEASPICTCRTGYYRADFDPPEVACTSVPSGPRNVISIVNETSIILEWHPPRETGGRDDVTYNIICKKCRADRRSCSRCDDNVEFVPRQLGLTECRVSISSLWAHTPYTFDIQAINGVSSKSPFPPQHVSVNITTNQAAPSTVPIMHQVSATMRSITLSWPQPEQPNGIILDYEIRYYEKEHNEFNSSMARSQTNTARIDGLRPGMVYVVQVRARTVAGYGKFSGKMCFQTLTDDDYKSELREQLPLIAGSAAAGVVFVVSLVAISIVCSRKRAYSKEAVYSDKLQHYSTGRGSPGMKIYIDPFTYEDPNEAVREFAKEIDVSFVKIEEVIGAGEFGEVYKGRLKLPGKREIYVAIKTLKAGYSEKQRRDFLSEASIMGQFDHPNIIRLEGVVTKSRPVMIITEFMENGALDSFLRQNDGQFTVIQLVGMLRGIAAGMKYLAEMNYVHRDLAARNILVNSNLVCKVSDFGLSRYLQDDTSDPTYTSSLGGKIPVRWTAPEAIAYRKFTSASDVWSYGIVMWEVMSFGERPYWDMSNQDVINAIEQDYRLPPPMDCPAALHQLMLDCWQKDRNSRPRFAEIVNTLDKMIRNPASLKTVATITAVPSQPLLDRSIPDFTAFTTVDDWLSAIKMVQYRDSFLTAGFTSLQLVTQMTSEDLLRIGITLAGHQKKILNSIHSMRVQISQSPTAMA

[5] = target: T2, Ephrin type-B receptor 4 (Homo sapiens) (UniProt P54760); assay: Inhibition of EphB4 at 0.1 uM; values are per cent of control
T2 sequence (whole entry): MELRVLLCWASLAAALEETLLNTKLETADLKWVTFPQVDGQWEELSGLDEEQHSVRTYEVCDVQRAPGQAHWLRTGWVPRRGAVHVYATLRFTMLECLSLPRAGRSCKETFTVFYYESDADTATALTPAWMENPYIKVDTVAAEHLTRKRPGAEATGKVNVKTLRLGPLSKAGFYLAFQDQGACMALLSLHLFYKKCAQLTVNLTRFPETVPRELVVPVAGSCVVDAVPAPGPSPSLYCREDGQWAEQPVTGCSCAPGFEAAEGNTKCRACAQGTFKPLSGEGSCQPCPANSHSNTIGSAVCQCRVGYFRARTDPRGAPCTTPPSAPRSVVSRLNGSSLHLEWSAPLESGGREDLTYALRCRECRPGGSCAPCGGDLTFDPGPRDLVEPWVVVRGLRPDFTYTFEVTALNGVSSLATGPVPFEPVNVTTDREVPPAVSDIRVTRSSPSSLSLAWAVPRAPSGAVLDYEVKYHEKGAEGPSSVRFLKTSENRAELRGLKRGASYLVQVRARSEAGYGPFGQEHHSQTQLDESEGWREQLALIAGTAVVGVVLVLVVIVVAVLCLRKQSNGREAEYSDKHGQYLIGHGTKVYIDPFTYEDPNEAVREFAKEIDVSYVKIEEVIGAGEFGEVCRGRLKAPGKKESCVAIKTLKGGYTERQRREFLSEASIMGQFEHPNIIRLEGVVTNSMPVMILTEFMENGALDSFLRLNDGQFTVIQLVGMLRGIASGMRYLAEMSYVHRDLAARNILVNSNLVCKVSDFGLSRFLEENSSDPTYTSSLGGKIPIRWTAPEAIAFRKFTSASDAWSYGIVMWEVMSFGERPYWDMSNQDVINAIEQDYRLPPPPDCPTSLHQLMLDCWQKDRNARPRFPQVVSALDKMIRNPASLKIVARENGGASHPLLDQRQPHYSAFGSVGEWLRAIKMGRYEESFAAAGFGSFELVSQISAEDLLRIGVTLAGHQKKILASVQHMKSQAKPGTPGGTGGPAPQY

[6] = target: Receptor tyrosine-protein kinase erbB-4 (Homo sapiens) (UniProt Q15303); assay: Inhibition of ErbB4 at 0.1 uM; values are per cent of control
[7] = target: Protein kinase C theta type (Homo sapiens) (UniProt Q04759); assay: Inhibition of PKCtheta at 1 uM; values are per cent of control
[8] = target: CDK6/cyclin D3 (Homo sapiens) (UniProt P30281+Q00534); assay: Inhibition of CDK6/cyclin D3 at 0.1 uM; values are per cent of control

Chain of Protein kinase C theta type (Homo sapiens) (Q04759 whole entry, looked up): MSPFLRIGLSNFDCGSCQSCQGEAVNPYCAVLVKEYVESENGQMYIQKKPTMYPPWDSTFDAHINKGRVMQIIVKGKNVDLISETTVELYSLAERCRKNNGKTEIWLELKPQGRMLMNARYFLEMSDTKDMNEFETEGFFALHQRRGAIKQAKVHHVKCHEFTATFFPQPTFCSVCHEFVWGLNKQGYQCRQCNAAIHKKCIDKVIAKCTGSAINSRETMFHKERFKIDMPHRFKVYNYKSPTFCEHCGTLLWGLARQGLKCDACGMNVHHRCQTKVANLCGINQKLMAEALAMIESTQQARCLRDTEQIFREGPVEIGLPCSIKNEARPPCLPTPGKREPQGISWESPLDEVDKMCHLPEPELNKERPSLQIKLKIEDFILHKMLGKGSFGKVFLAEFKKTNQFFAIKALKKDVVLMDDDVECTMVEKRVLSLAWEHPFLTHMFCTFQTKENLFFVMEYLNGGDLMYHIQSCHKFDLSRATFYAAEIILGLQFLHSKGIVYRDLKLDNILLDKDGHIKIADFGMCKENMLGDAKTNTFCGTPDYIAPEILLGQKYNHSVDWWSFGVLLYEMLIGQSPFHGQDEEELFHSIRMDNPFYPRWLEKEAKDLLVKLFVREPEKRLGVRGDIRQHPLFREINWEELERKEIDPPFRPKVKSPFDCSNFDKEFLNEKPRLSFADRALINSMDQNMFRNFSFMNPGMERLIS
Chain of Serine/threonine-protein kinase pim-1 (Homo sapiens) (P11309 whole entry, looked up): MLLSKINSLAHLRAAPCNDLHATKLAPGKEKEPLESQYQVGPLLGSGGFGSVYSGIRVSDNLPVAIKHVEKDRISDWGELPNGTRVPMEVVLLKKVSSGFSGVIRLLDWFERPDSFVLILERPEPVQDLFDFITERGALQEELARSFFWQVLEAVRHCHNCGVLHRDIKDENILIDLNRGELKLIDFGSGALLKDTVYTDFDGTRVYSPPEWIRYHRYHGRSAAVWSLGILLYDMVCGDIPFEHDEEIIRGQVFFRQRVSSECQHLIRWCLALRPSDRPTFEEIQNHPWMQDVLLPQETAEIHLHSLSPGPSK
Chain of Receptor tyrosine-protein kinase erbB-4 (Homo sapiens) (Q15303 whole entry): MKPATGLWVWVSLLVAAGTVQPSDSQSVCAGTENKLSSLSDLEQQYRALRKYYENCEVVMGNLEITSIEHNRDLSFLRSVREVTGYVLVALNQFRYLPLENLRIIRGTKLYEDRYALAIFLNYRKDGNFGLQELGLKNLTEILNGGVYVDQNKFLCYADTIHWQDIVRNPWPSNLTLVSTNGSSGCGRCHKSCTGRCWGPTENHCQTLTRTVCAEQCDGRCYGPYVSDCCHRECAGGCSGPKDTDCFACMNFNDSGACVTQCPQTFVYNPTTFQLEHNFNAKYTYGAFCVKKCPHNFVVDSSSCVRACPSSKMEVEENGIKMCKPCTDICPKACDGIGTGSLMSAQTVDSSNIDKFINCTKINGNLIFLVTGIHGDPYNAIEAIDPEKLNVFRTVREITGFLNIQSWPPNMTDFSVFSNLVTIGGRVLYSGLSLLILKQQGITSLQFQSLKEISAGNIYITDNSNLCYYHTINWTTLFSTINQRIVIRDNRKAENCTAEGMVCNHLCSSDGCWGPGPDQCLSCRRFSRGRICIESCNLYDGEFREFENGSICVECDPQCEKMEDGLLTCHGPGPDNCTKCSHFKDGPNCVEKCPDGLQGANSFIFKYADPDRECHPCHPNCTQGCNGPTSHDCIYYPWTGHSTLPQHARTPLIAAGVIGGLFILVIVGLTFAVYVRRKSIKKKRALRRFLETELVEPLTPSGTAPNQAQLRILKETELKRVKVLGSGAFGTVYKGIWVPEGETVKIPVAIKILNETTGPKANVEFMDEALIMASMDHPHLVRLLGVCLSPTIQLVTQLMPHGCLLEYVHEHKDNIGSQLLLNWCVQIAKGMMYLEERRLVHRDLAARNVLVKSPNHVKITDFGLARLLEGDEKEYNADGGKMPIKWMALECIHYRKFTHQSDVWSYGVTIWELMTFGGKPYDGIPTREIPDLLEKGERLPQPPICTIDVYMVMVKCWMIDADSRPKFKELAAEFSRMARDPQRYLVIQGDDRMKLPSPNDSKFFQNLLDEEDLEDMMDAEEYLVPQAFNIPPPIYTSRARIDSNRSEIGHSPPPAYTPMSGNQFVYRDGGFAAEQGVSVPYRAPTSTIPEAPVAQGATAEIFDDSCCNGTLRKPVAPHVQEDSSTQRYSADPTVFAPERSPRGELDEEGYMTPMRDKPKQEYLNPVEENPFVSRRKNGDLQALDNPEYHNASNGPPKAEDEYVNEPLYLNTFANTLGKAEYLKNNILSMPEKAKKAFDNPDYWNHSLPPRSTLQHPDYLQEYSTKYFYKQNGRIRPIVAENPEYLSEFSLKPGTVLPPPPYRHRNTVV
Chain of Macrophage colony-stimulating factor 1 receptor (Homo sapiens) (P07333 whole entry): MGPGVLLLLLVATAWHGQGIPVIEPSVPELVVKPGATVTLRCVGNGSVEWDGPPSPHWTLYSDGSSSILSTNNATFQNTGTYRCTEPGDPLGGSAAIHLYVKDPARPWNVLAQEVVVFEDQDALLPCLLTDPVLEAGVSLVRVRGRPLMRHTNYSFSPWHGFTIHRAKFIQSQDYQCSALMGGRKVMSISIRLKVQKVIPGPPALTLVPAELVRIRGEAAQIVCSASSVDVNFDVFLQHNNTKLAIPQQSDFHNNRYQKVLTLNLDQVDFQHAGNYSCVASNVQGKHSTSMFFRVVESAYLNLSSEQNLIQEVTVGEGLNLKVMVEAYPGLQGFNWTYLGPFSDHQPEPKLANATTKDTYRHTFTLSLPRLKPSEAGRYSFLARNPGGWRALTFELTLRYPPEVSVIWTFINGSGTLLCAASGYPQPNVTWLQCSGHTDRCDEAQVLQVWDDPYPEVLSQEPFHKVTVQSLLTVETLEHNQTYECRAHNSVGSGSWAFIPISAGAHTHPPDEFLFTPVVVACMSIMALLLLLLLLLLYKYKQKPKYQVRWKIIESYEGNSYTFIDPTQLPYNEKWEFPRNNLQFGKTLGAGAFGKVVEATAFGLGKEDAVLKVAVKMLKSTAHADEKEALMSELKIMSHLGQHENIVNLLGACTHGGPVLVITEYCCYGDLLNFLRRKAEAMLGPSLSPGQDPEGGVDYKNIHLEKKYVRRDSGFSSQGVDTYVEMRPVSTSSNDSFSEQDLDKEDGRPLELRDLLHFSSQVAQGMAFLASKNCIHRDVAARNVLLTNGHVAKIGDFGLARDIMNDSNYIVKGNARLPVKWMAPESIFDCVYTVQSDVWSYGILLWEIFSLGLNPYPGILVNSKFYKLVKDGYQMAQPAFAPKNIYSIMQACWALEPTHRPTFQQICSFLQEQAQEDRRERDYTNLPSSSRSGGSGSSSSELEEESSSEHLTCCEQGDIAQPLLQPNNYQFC
Chain of Tyrosine-protein kinase Fyn (Homo sapiens) (P06241 2-537 limits assumed): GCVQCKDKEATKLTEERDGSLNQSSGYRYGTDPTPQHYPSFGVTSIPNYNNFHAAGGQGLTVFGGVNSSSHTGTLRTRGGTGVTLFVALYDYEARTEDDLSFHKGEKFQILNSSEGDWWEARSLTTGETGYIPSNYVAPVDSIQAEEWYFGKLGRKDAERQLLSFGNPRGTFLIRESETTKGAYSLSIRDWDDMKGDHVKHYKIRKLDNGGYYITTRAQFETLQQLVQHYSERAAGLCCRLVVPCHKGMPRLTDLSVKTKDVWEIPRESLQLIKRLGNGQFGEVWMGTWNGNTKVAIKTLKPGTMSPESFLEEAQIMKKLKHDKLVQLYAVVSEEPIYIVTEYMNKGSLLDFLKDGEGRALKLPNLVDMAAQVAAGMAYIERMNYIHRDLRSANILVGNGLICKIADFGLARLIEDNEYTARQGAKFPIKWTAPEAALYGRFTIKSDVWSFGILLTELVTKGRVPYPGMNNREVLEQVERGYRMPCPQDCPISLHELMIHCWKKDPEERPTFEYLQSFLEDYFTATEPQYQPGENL

residual activity [1] [%] | residual activity [2] [%] | residual activity [3] [%] | residual activity [4] [%] | residual activity [5] [%] | residual activity [6] [%] | residual activity [7] [%] | residual activity [8] [%] | SMILES
10 | 1 | 91 | 29 | 106 | 81 | 23 | 70 | Cc1ccc2cc(-c3n[nH]c4ccc(NC5CCNC5)cc34)[nH]c2c1 (stereo unspecified)
20 | 30 | 93 | 73 | 101 | 43 | 6 | 80 | Cc1ccc2cc(-c3n[nH]c4ccc(NC5CCN(Cc6ccccc6)CC5)cc34)[nH]c2c1
